Experimental data from patent US7183459B2, “Dwf7 mutants” (The Arizona Board of Regents on Behalf of the University of …, priority 2000, dated 2007).
Like-named read-outs stand apart in the source and are kept apart here.

What was measured:
dwf7-2 = test: Feeding of BR biosynthetic intermediates to dwf7-2 inflorescences; assay type: in vivo, Arabidopsis thaliana; conditions: for elongation of pedicels and internodes of dwf7-2: 3-week-old inflorescences of dwf7-2; for biochemical complementation of the dwf7-2 allele: in vivo
Protocol: (§1) Feeding experiments using biosynthetic intermediates were performed with 3-week-old mutant plants. The intermediates tested were diluted to the desired concentration with water containing 0.01% Tween 20. Two microliters of each brassinosteroid (BR) solution was applied daily to the shoot tips of plants by using a micro pipettman. After 1 week of treatment, total growth of inflorescence and pedicels was measured to the nearest millimeter (n=15).
A second allele of dwf7 was identified among 43 dwarf mutants isolated by screening >50,000 M2 seeds of an EMS mutant population.
(§2) Similarly, 3-week-old inflorescences of dwf7-2 were tested with 22-OHCR, 6-deoxoCT, teasterone, and BL.

dwf7-1 plants [1] = test: Feeding of BR biosynthetic intermediates to shoot tips of 3-week-old dwf7-1 plants; assay type: in vivo, Arabidopsis thaliana; conditions: for elongation of dwf7-1 pedicels in response to BRs: FIG. 4 legend, versus water, n>15
Protocol: as §1
To pinpoint the defective step in the BR biosynthetic pathway, dwf7-1 mutants were treated with BR biosynthetic intermediates. Due to undetectable bioactivity of some early intermediates (CR to 6-oxocampestanol) in bioassays (Fujioka et al. 1995; Choe et al. (1998) Plant Cell 10:231–243), these were not used. Instead, three biologically active compounds were chosen, 22-OHCR, 6-deoxoCT, and BL, for these feeding tests (see FIG. 1). Because the 22α-hydroxylation reaction is reported to be mediated by DWF4 (Choe et al. (1998) Plant Cell 10:231–243), biochemical complementation of dwf mutants other than dwf4 by 22-OHCR places the defective step upstream of CR.
as §2

[2] = tested on: Wassilewskija-2 (Ws-2) wild type hypocotyls
Protocol: (§3) Biochemical complementation of dwf7-1 plants with different concentrations of brassinolide (BL) was performed in liquid media. BL-supplemented (control, 10^−9, 10^−8, and 10^−7 M) sterile liquid media (1.5 mL) was dispensed into wells of a 24-well plate (Corning Co., Corning, N.Y.). Three seedlings, germinated on agar-solidified media, were transferred into each well. After a week of growth with continuous shaking (230 rpm), the seedlings were lightly stained with toluidine blue, and hypocotyls and roots were measured to the nearest millimeter.

[3] = tested on: wild-type Arabidopsis seedlings; test: Effects of compactin and MVA on growth of seedlings in liquid media; assay type: in vivo
[4] = tested on: Δ^7 sterol C-5 desaturase; conditions: enzyme prepared from maize microsomes; cited from earlier work
wild-type plants = test: GA3 spray on wild-type plants; assay type: in vivo, Arabidopsis thaliana; conditions: 0.1 mM GA3 sprayed
From the text: The overall morphology of plants is dependent on three factors: cell size, shape, and number (Cosgrove (1997) Plant Cell 9:1031–1041). Various signals modulate these factors. Environmental signals, such as water, temperature, and light, are transduced to invoke internal hormone signals, including auxins, gibberellins, and BRs. These signals then trigger the cell elongation process, including but not limited to cell wall loosening by xyloglucan endotransglycosylases and expansins. Thus, a block in any of the signal transduction cascades from the environmental signals to the cell elongation process could result in dwarfism. Mutants resistant to or deficient in classic hormones, such as auxin (e.g., auxin resistant2 [axr2]; Timpte (1992) Genetics 138:1239–1249) and gibberellin ([ga1 to ga5 and gai]; Koornneef and van der Veen (1980) Theor. Appl. Genet. 58:257-263; Koornneef et al. (1985) Physiol. Plant. 65:33–39), often result in dwarfism. Thus, we first tested whether dwf7 is either rescued by or resistant to exogenous application of these hormones. […] The reduction of hypocotyl length in dwf7-1 was rescued by the application of BL (FIG. 3). Both wild-type and dwf7-1 plants responded to BL, but dwf7-1 plants were hypersensitive. The length of dwf7-1 hypocotyls was increased 160% in response to 1 nM BL as compared with the untreated control, whereas the wild-type responded marginally (5%).

dwf7-1 plants [5] = test: GA3 spray on 3-week-old dwf7-1 plants; assay type: in vivo, Arabidopsis thaliana; conditions: 0.1 mM GA3 sprayed

Protocol for dwf7-1 hypocotyls: as §3

CC(C)[C@H](C)[C@@H](O)[C@H](O)[C@@H](C)[C@H]1CC[C@H]2[C@@H]3CC(=O)[C@H]4C[C@@H](O)CC[C@]4(C)[C@H]3CC[C@]12C [teasterone]
elongation of pedicels and internodes of dwf7-2 (dwf7-2): significant elongation

CC(C)[C@H](C)[C@@H](O)[C@H](O)[C@@H](C)[C@H]1CC[C@H]2[C@@H]3COC(=O)[C@H]4C[C@H](O)[C@H](O)C[C@]4(C)[C@H]3CC[C@]12C [BL, brassinolide]
elongation of dwf7-1 hypocotyls (increase) (dwf7-1 hypocotyls; 1 nM BL, BL-supplemented liquid media, light-grown, compared with untreated control): 160%
rescue of dwf7-1 hypocotyls to wild-type length (dwf7-1 hypocotyls; 10 nM (10^-8 M) BL): completely rescued
rescue of dwf7-1 hypocotyls to wild-type length (dwf7-1 hypocotyls; 100 nM BL): completely rescued
response of dwf7-1 hypocotyls to BL (dwf7-1 hypocotyls; 10^-9 M BL, light-grown (FIG. 3)): responds
elongation of dwf7-1 pedicels in response to BRs (dwf7-1 plants [1]): greater than twofold
length of cells in dwf7-1 stem after BL treatment (dwf7-1 plants [1]; daily application of 10^-7 M BL for 1 week): converted to the length of the wild type
growth of treated dwf7-1 pedicels relative to wild-type (dwf7-1 plants [1]; in vivo): greater than or equal to that of the wild-type
wild-type hypocotyl increase ([2]; 1 nM BL, BL-supplemented liquid media, light-grown): 5%
BL concentration giving the strongest response of the wild type ([2]; hypocotyl length, liquid media (FIG. 3)): 100 nM
elongation of pedicels and internodes of dwf7-2 (dwf7-2): significant elongation

C[C@@](O)(CCO)CC(=O)O [MVA, mevalonic acid]
reversal of compactin growth inhibition ([3]; 4.5 mM MVA applied simultaneously with 10 μM compactin): restored to the level of controls

CC[C@H](C)C(=O)O[C@H]1CCC=C2C=C[C@H](C)[C@H](CC[C@@H]3C[C@@H](O)CC(=O)O3)[C@H]21 [compactin, mevastatin]
growth of seedlings ([3]; 10 μM compactin, liquid media): almost completely inhibited

[C-]#[O+] [carbon monoxide]
effect on enzyme [4]: insensitive

C=C1C[C@]23C[C@@]1(O)CC[C@H]2[C@@]12C=C[C@H](O)[C@@](C)(C(=O)O1)[C@H]2[C@@H]3C(=O)O [GA3]
increase of inflorescence height (wild-type plants): < 10%
rescue of the dwf7-1 phenotype (dwf7-1 plants [5]): did not rescue
increase of inflorescence height (dwf7-1 plants [5]; 3-week-old dwf7-1 plants): < 10%

CC(C)[C@H](C)C[C@H](O)[C@@H](C)[C@H]1CC[C@H]2[C@@H]3CC=C4C[C@@H](O)CC[C@]4(C)[C@H]3CC[C@]12C [22-OHCR, 22 α-hydroxycampesterol]
elongation of dwf7-1 pedicels in response to BRs (dwf7-1 plants [1]): greater than twofold
growth of treated dwf7-1 pedicels relative to wild-type (dwf7-1 plants [1]; in vivo): greater than or equal to that of the wild-type
rescue of dwf7-1 by exogenous application (dwf7-1 plants [1]; in vivo): Rescue
elongation of pedicels and internodes of dwf7-2 (dwf7-2): significant elongation
biochemical complementation of the dwf7-2 allele (dwf7-2): biochemically complemented

CC(C)[C@H](C)C[C@H](O)[C@@H](C)[C@H]1CC[C@H]2[C@@H]3CC(=O)[C@H]4C[C@@H](O)CC[C@]4(C)[C@H]3CC[C@]12C [cathasterone]
biochemical complementation of the dwf7-2 allele (dwf7-2): biochemically complemented

CC(C)[C@H](C)C[C@H](O)[C@@H](C)[C@H]1CC[C@H]2[C@@H]3CC[C@H]4C[C@@H](O)CC[C@]4(C)[C@H]3CC[C@]12C [6-deoxoCT]
elongation of dwf7-1 pedicels in response to BRs (dwf7-1 plants [1]): greater than twofold
elongation of pedicels and internodes of dwf7-2 (dwf7-2): significant elongation
